According to patent US20240407364A1, “METHODS OF WEED CONTROL” (Weedout Ltd., priority 2021, published 2024):
“Also recorded” adds a separate entry of the source.

Experiments:
A. palmeri female plants [1] = test: Exp 289: seed set of female plants pollinated 1.5 hours to 10 days after Clethodim; type: in vivo, Amaranthus palmeri; details: Select Super 3.5 ml/l
Procedure: The goal of this experiment was to examine the effects of Clethodim (Select Super™) on seed set in A. palmeri female plants. The results of Example 1 provided an initial indication on a reduction in seed set one week after an application of Clethodim. The following experiment tested the effect of Clethodim on seed set when pollination occurs from 1.5 hours to 10 days after treatment with Clethodim.
The experiment was conducted during June-July 2021 at the tests farm of the Tests farm of the Faculty of Agriculture, Rehovot, Israel, Israel. A. palmeri plants were sown in germinating trays. Three weeks after the seedlings had emerged, they were transplanted to 4 L pots with a potting soil mixture. The female plants were separated from the male plants and were grown outside in a location isolated from air-borne pollen. Upon maturation, 6 female plants were selected and divided into 2 groups of 3 plants.
Spraying of the entire plants with either tap water or Select Super™ (3.5 ml/1) using a hand-held 1.5 L sprayer, with enough distance between the groups to prevent contamination.
To test the effect of Clethodim on seed set, the inflorescence of the plants were artificially pollinated. On each time interval, a paper tube with 10 mg of fresh non-irradiated pollen was carefully placed on an inflorescence, leaving it for 20 minutes before removing. […]

A. palmeri females [2] = test: Exp 254: seed set of females pollinated one week after treatment; type: in vivo, Amaranthus palmeri
Procedure: (§1) The experiment was conducted during April-May 2021 in a net house in Rehovot, Israel. A. palmeri plants were sown in germinating trays. Three weeks after the seedlings had emerged, the male plants were transplanted in the net house. A. palmeri plants were divided into 10 groups of 10 plants, 100 male plants in total. In addition, 30 females, 3 females per treatment, were transplanted in 4 L pots with a potting soil mixture and were grown in a different net house, isolated from male pollen.
(§2) The treatments were applied using a hand-held sprayer, the females were sprayed first and then the males. ˜650 ml solution was used per treatment for both males and females, except the Paraffin:Silicon oil treatment in which 500 ml was used. The solutions were sprayed on top of the plants except the Diuron that was sprayed directly to the soil and stem, except for one female that was sprayed on top. To activate the Diuron, each plant was watered with 1 L of water.
The experiment aimed to test not just the male sterility properties of the agents but also to examine the effect on the seed set. To do so, one week after treatment, the main inflorescence of each female (except the blank) was pollinated with fresh pollen mixed with talc in 2:1 ratio using a puffer. 70 mg of pollen was applied on each female. Two weeks after pollination the inflorescences were harvested, dried, thrashed and the seeds were counted.

[3] = system: Amaranthus tuberculatus female plants; test: Exp 401: clethodim on broadleaf panel, Amaranthus tuberculatus seed set; type: in vivo; details: Select Super 7 ml/L
Procedure: (§3) The goal of this experiment was to examine if ACCase inhibitors can function as a sterilant on other broadleaf families.
(§4) The experiment was conducted during April-June 2022 at the test farm of the Faculty of Agriculture in Rehovot, Israel. The different broad leaf species (Table 5) were sown in germination trays. 3-4 weeks after the seedling had emerged, they were transplanted in 4 L pots with potting soil mixture. Amaranthus tuberculatus female plants were separated from male plants and grown outside in a location isolated from air borne pollen. Upon maturation, 10 plants from each species, except for A. tuberculatus females, were selected and divided into 2 groups (control and treatment). In A. tuberculatus, 8 female plants were used for the testing.
(§5) All the treated plants were sprayed with clethodim (Select Super™, Arysta Lifescience) in 7 ml/L rate while the control group was treated with tap water.
(§6) Treatment procedure was conducted as follows: spraying of the entire plants with the different treatments using electric back sprayer for a full cover, with enough distance between the groups to prevent contamination.
To test the effect of treatment on the seed set, artificial pollinations were conducted 7 days following the clethodim treatment. One spike from each plant was artificially pollinated by placing a paper tube with 10 mg of fresh non-irradiated pollen on the spike and leaving it for 20 minutes before removing. A total of 4 spikes from 4 female plants were pollinated.
(§7) Four, 7 14 and 21 days after treatment, the plants were visually examined carefully to identify possible sterilant effects such as reduction in pollen production, growth delay, damaged flowers, loss of flowers, loss of pods and phytotoxicity. These effects were measured or evaluated and recorded. The average values of each parameter were calculated both for the treated and for the control groups and a statistical analysis was conducted.

A. palmeri male plants [4] = test: Exp 275: pollen weight of male plants after male sterilant agents; type: in vivo, Amaranthus palmeri
Procedure: The experiment was conducted during May-June 2021 in a net house in Rehovot, Israel. A. palmeri plants were sown in the net house soil and were grown for over a month before the experiment started. A. palmeri plants were divided into 6 groups of 10 plants, 60 male plants in total.
The plants were mature and produced pollen when the experiment started. The pollen had been collected daily with a vacuum cleaner. The vacuum cleaner had been mounted with a replaceable filter located ahead of the dust container, thus catching the pollen before it enters the container and improving its collection. Pollen was collected for 5 days before the treatment and was continued for 2 weeks afterwards.
The experiment tested 5 male sterilant agents: (I) Silicon oil 2 cST; (II) 2% Paraffin oil (Life—Superpharm) in Silicon oil 2 c/st; (III) 10% Paraffin oil (Life—Superpharm) in Silicon oil 2 cST; (IV) Clethodim (Select Super™), same as in Example 1; (V) Pyrithiobac, at 1/10 the concentration used in experiment II. Another group of plants was not treated at all (Blank).
The treatments were applied using a hand-held sprayer. The solutions were sprayed on top of the plants.

[5] = system: Amaranthus tuberculatus male plants; test: Exp 401: Amaranthus tuberculatus pollen production; type: in vivo; details: Select Super 7 ml/L
Procedure: as §3, §4
(§8) All the treated plants were sprayed with clethodim (Select Super™, Arysta Lifescience) in 7 ml/L rate while the control group was treated with tap water. […]
as §7

A. palmeri male plants [6] = test: Exp 254: pollen production of male plants after spraying male sterilant agents; type: in vivo, Amaranthus palmeri
Procedure: as §1
Once the male plants had all started to flower, the pollen had been collected daily with a vacuum cleaner. The vacuum cleaner had been mounted with a replaceable filter located ahead of the dust container, thus catching the pollen before it enters the container and improving its collection. A new filter was used for each group, and the filters were kept in a 50 ml tube before the pollen was extracted and weighed in the lab.
(§9) The experiment tested 8 male sterilant agents (Table 2): (1) Triton X-100 (Adama), at label rate, ˜8 times the rate used in experiment I; (2) Tribenuron-Methyl (TBM) (Gadot), 1/100 the rate used in experiment I; (3) 10% Paraffin oil (Life—Superpharm) diluted in Silicon oil 2 cST; (4) E.O.S. (Adama), an insecticide with a physical mode of action, based on petroleum oil; (5) Maleic Hydrazide (Sigma), an Auxin (plant hormone) disruptor known to affect pollen production; (6) Pyrithiobac (IHARA chemical industry co. ltd), an herbicide of the AHAS inhibitors group, regularly used in cotton cultivation to control broadleaf weeds; (7) Diuron (Adama), a herbicide of the Photosystem II inhibitors, regularly used in cotton cultivation; (8) Clethodim (Select Super™ a selective herbicide used to control Gramineae. Another group of plants were treated with water only as control, and another was not treated at all (Blank).
as §2

Abutilon theophrasti = test: Exp 401: clethodim on Abutilon theophrasti; type: in vivo; details: Select Super 7 ml/L
Procedure: as §3, §4, §5, §6, §7

A. palmeri female plants [7] = test: Exp 313: dose response of Clethodim (Select Super) on seed set; type: in vivo, Amaranthus palmeri; details: for reduction in number of seeds produced in comparison to the control, on average: all time points averaged
Procedure: The goal of this experiment was to examine dose response of Clethodim (Select Super™) treatment and validate the results of Example 3.
The experiment was conducted during September 2021 at the tests farm of the Faculty of Agriculture in Rehovot, Israel. A. palmeri plants were sown in germinating trays. 3 weeks after the seedlings had emerged, they were transplanted to 4 L pots with a potting soil mixture. The female plants were separated from the male plants and were grown outside in a location isolated from air-borne pollen. Upon maturation, 9 female plants were selected and divided into 3 groups of 3 plants.
The experiment tested 2 rates of Select Super™ (Clethodim 120 gr/L-Arysta): (I) Low rate (3.5 ml/1), (II) High rate (7 ml/1). Another group of plants was treated with tap water (Control), [3.5 ml/L treatment=0.42 gr/L in active ingredient, 7 ml/L treatment=0.84 gr/L].
Treatment procedure was conducted as follows: spraying of the entire plants with the different treatments using a hand-held 1.5 L sprayer, with enough distance between the groups to prevent contamination.
To test the effect of Clethodim on seed set, artificial pollinations were conducted in several time intervals following clethodim treatment. On each time interval, 2 inflorescences on each plant were artificially pollinated by placing a paper tube with 10 mg of fresh non-irradiated pollen on the inflorescence and leaving it for 20 minutes before removing. On each time interval a total of 6 inflorescences from 3 female plants were pollinated. The intervals were as follows: 1.5-hour, 1 day, 2 days, 4 days, 7 days, 10 days and 22 days after treatment.

A. palmeri male plants [8] = test: Exp 321: male sterility agents screening #2, pollen production; type: in vivo, Amaranthus palmeri; details: 7 ml/L (high rate); collection up to 12 DAA
Procedure: The goal of this experiments was to repeat results with Select Super™ (Arysta Lifescience) and test an additional formulation of clethodim to act as a sterilant on A. palmeri male plants.
The experiment was conducted during September-October 2022 in a net house in Rehovot, Israel. A. palmeri plants were sown in germinating trays, 3 weeks after the seedlings had emerged, the male plants were transplanted in the net house. A. palmeri plants were divided into 4 groups of 10 plants each, 40 male plants in total.
Once the male plants had all started to flower, the pollen had been collected daily with a vacuum cleaner in the same manner as described in Example 1. Pollen was collected in specific days following the applications up to 12 DAA.
The experiment tested 2 male sterilant agents: (1) Clethodim (Select Super™, Arysta Lifescience) low rate: 3.5 ml/L and high rate: 7 ml/L, (2) Clethodim (Arrow Super™, Adama) 7 ml/L. Another group of plants were not treated at all and served as a control.
Treatment procedure was conducted as follows: spraying of the entire plants using a hand-held 1.5 L sprayer for a full cover of all plant parts. Each group of plants was sprayed with the tested treatment while keeping enough distance between the groups to prevent contamination.

Solanum nigrum = test: Exp 401: clethodim on Solanum nigrum; type: in vivo; details: Select Super 7 ml/L; 15 DAA; p-value 0.0048
Procedure: as §3, §4, §8, §7

A. palmeri females [9] = test: Exp 254: phytotoxicity of the agents on females; type: in vivo, Amaranthus palmeri; details: 3 females per treatment; concentrations of Table 2; Diuron 5 ml/L, Pyrithiobac 5.4 μL/L
Procedure: as §1
as §9, with “Another group of plants were treated with water only as control, and another was not treated at all (Blank).” left out

[10] = average of 3 inflorescences, pollinated one week after treatment
[11] = Clethodim 3.5 ml/L, 10% Paraffin in 2 cST
[12] = Clethodim treatment group, FIG. 2

SMILES: CCSC(C)CC1CC(=O)C(/C(CC)=N/OC/C=C/Cl)=C(O)C1 (centres unmarked) [Clethodim (Select Super™]
- abortion rate (aborted seeds/total seeds) (A. palmeri female plants [1]; vs tap water): significantly higher compared to the water control

SMILES: CCSC(C)CC1CC(=O)C(/C(CC)=N/OC/C=C/Cl)=C(O)C1 (centres unmarked) [Clethodim]
- Average Aborted Seeds (A. palmeri females [2]; [10]): 80.7 number of seeds
- Average Abortion Rate (fraction of aborted seeds from the total seed number) (A. palmeri females [2]; [10]): 0.17
- Average Normal Seeds (A. palmeri females [2]; [10]): 349 number of seeds
- Average Seeds/ mg inflo. (total seed number divided by inflorescence weight) (A. palmeri females [2]; [10]): 0.78
- Average Total Seeds (A. palmeri females [2]; [10]): 429.7 number of seeds
- Average Inflo. Weight (A. palmeri females [2]; average of 3 inflorescences, pollinated one week after treatment, harvested two weeks later): 667.3 mg
- effect on abortion rate compared to the water (A. palmeri females [2]; compared to H2O treatment): no effect
- number of seeds per inflorescence mg as % of the water treatment value (A. palmeri females [2]; compared to H2O treatment): ~70%
- visible effect on the plants [3]: no visible effect on the plants other than on the flowering organs
- reduction of average seed weight per spike in comparison to the control spikes ([3]; pollination 7 days after treatment): 93%
- Average total seed weight per spike ([3]; pollination 7 days after treatment, 4 spikes from 4 plants): 13.25 mg
- duration of the reduction in pollen weight (A. palmeri male plants [4]; 10% Paraffin oil in Silicon oil 2 cST, Clethodim (Select Super) as in Example 1): 8 days
- apparent damage to the plants (A. palmeri male plants [4]; in vivo): did not cause any apparent damage to the plants
- onset of the reduction in pollen weight after application (A. palmeri male plants [4]; in vivo): 5 days
- reduction in pollen weight compared to the blank (A. palmeri male plants [4]; maximum reduction, FIG. 4): up to 80%
- duration of the effect on pollen [5]: at least 21 days
- onset of the effect on pollen [5]: 4 days after treatment
- pollen weight after treatment relative to the lowest amount collected before treatment (A. palmeri male plants [6]; Clethodim 3.5 ml/L): 1/10
- duration of the pollen weight reduction / time to get back to pre-treatment weight (A. palmeri male plants [6]; [11]): 14 days
- onset of the reduction in pollen weight (A. palmeri male plants [6]; [11]): 5 days after treatment
- onset of pollen production (recovery) (A. palmeri male plants [6]; [12]): 13 DAT
- period of major reduction in pollen weight (A. palmeri male plants [6]; [12]): 5-8 DAT
- visible effect / injury to the treated plants (A. palmeri male plants [6]; male plants after spraying): no apparent injury to the plants; also recorded: no visible effect on the plants
- time from application to start of Blossom-Drop (Abutilon theophrasti): 7 days
- reduction in average stem length (main stem) (Abutilon theophrasti; 15 DAA, p-value *0.0058): 19%
- reduction in average pods number in comparison to the control (Abutilon theophrasti; 15 days after application, p-value *0.0001): 75%
- duration of decreased total seed number after application (A. palmeri female plants [1]): at least 10 days
- visible effect on the plants (A. palmeri female plants [7]; both rates): no visible effect on the plants
- reduction in number of seeds produced in comparison to the control, on average (A. palmeri female plants [7]; high rate 7 ml/l (0.84 gr/L active ingredient)): 92%
- reduction in number of seeds produced in comparison to the control, on average (A. palmeri female plants [7]; low rate 3.5 ml/l (0.42 gr/L active ingredient)): 67%
- reduction in pollen production between day 4 and the end of the experiment (A. palmeri male plants [8]): 78%
- reduction in average total fruit number (Solanum nigrum): 35%

SMILES: CN(C)C(=O)Nc1ccc(Cl)c(Cl)c1 [Diuron]
- phytotoxicity on females (A. palmeri females [9]): killed all three females

SMILES: COc1cc(OC)nc(Sc2cccc(Cl)c2C(=O)O)n1 [Pyrithiobac]
- phytotoxicity on females (A. palmeri females [9]): chlorosis and growth stunt
